Experimental data: publication PMC7696185, “Synthesis of New 1, 3, 4-Oxadiazole-Incorporated 1, 2, 3-Triazole Moieties as Potential Anticancer Agents Targeting Thymidylate Synthase and Their Docking Studies” (Pharmaceuticals, 2020)
Where two headings read alike, the source gives them in different places.

Columns and labels:
HCT-116 cells = test: MTT cytotoxicity assay, HCT-116; type: cell-based, human; conditions: for IC50: colorectal cancer HCT-116, MTT, 72 h; for fold activity compared to 5-fluorouracil, HCT-116 / fold activity compared to tamoxifen, HCT-116: ratio of IC50, HCT-116
Experimental: (§1) These compounds were tested against breast MCF-7 and colorectal HCT-116 cell lines.
(§2) The cytotoxicity activity was done by MTT assay. Breast MCF-7 and colorectal HCT-116 cancer cells were added at 1 × 10^5 cells/mL into a 96-well plate with three replicates, and incubated overnight for attachment at 37 °C in a 5% CO2 humidified atmosphere. Drug concentrations at six serial dilutions (100.0, 50.0, 10.0, 1.0, 0.5, and 0.1 μM) were added in triplicate and incubated at 37 °C and 5% CO2 for 72 h. Drugs were dissolved in 0.1% DMSO as a vehicle. Untreated cells were used as control. […] Thereafter, each well for each time point was removed and replaced with […] of full medium containing 10% 3-(4,5- dimethylthiaxolyl-2)-2,5-diphenyltetrazoliumbromide (MTT) (10 mg/mL). Then the media was removed and 100 µl of DMSO was added, and cells were incubated for a further 5 mins at 37 °C and 5% CO2. Plates were quantified using the SpectraMax M3 plate reader at 570 nm. The percentage inhibition was calculated as 100 − ((mean OD of treated cell × 100)/Mean OD of vehicle treated cells (DMSO)). All the experiments were repeated in at least three independent experiments (Table 2, Figure 3, Figure 4, Figure 5 and Figure 6).

MCF-7 cells = test: MTT cytotoxicity assay, MCF-7; type: cell-based, human; conditions: for IC50: Homo sapiens, MCF7, breast cancer MCF-7, MTT, 72 h
Experimental: as §1
The human breast cancer cell line (MCF-7) used in the present study was obtained from Dr. Neamatallah’s lab. The cells were cultured in Dulbecco’s Modified Eagle Medium (DMEM) supplemented with 10% (v/v) fetal bovine serum (FBS), 10,000 units/mL penicillin/streptomycin, and 1% (v/v) L-glutamine at 37 °C in humidified 5% CO2 incubator.
as §2

[1] = target: thymidylate synthase (TS) (Homo sapiens, UniProt P04818); test: In vitro thymidylate synthase enzyme assay; type: biochemical; conditions: for fold activity compared to pemetrexed, TS: ratio of IC50, TS enzyme
Experimental: The inhibition of this enzyme plays a vital role in chemotherapy treatment. […] This inactivation of dTMP results in a reduction of deoxythymidine triphosphate (dTTP), leading to the disruption of DNA synthesis and cessation of cell growth and proliferation (Figure 7).
A thymidylate synthase enzymatic assay was carried out according to the reported method. It involves a mixture containing 2-mercaptoethanol (0.1 M), (6R,S)-tetrahydrofolate (0.0003 M), formaldehyde (0.012 M), MgCl2 (0.02 M), dUMP (0.001 M), TrisHCl (0.04 M), and NaEDTA (0.00075 M).This assay was done spectrophotometrically at 30° C and pH 7.4. The reaction was initiated by the addition of an amount of enzyme, giving a change in absorbance at 340 nm of 0.016/min in the absence of inhibitor. The percent inhibition was determined at a minimum of four inhibitor concentrations within 20% of the 50% point.

HEK 293 cells = test: MTT assay on non-tumorigenic cell line HEK 293; type: cell-based; conditions: HEK293, normal human embryonic kidney cells
[2] = spectrophotometric, 340 nm, 30 °C, pH 7.4, read-out: IC50 thymidylate synthase

thymidylate synthase (TS), sequence (P04818 whole entry): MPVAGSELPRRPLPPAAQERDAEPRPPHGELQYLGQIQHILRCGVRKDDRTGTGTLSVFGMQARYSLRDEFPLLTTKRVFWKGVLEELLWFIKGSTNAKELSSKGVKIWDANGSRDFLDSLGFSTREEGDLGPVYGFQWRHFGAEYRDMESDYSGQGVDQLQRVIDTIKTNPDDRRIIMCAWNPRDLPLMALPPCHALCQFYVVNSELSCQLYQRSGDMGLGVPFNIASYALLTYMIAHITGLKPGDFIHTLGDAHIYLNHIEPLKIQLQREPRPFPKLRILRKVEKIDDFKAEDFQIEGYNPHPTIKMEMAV

Row | melting point [°C] | SMILES | IC50 (HCT-116 cells; Homo sapiens, HCT-116, 72 h) [µM] | IC50 (MCF-7 cells) [µM] | further results
1 |  | Cc1ccc(-n2cc(CSc3nnc(-c4ccccc4)o3)nn2)cc1 [Compound 6, 4-((5-phenyl–1,3,4-oxadiazol–2-ylthio)methyl)-1-p-tolyl–1H-1,2,3-triazole] | 89.2 | 79.8 | 
2 | 200 to 202 | Clc1ccc(-n2cc(CSc3nnc(-c4ccccc4)o3)nn2)cc1 [Compound 9, 4-((5-phenyl–1,3,4-oxadiazol-2-ylthio)methyl)–1-(4-chlorophenyl)-1H–1,2,3-triazole] | 36.7 | 34.4 | 
3 | 119 to 120 | O=C(O)c1ccccc1-n1cc(CSc2nnc(-c3ccccc3)o2)nn1 [Compound 14, 2-(4-((5-phenyl–1,3,4-oxadiazol–2-ylthio)methyl)-1H–1,2,3-triazol–1-yl)benzoic acid] | 46.8 | 40.6 | 
4 |  | c1ccc(-c2nnc(SCc3cn(-c4ccccc4)nn3)o2)cc1 [Compound 12, 4-((5-phenyl–1,3,4-oxadiazol–2-ylthio)methyl)-1-phenyl-1H–1,2,3-triazole] | 14.8 | 5.8 | fold activity compared to 5-fluorouracil, HCT-116 (HCT-116 cells): 2.2 fold; fold activity compared to tamoxifen, HCT-116 (HCT-116 cells): 1.7 fold; fold activity compared to pemetrexed, TS [1]: 2.6 fold; IC50 [1, 2]: 2.52 µM; IC50 (HEK 293 cells): > 50 µM; fold activity compared to 5-fluorouracil, MCF-7 (MCF-7 cells; ratio of IC50, MCF-7): four-fold
5 |  | Nc1nc2[nH]cc(CCc3ccc(C(=O)N[C@@H](CCC(=O)O)C(=O)O)cc3)c2c(=O)[nH]1 [PTX, pemetrexed, reference compound] |  |  | IC50 [1]: 6.75 µM
6 |  | O=c1[nH]cc(F)c(=O)[nH]1 [Compound 5-FU, 5-fluorouracil, reference compound] | 32.7 | 24.7 | 
7 | 146 to 148 | Brc1cccc(-n2cc(CSc3nnc(-c4ccccc4)o3)nn2)c1 [Compound 10, 4-((5-phenyl–1,3,4-oxadiazol–2-ylthio)methyl)-1-(3-bromophenyl)-1H–1,2,3-triazole] | 32.7 | 25.9 | 
8 |  | Cc1ccccc1-n1cc(CSc2nnc(-c3ccccc3)o2)nn1 [Compound 7, 4-((5-phenyl–1,3,4-oxadiazol-2-ylthio)methyl)–1-o-tolyl-1H–1,2,3-triazole] | 34.3 | 30.7 | 
9 | 202 to 204 | O=[N+]([O-])c1ccc(-n2cc(CSc3nnc(-c4ccccc4)o3)nn2)cc1 [Compound 11, 4-((5-phenyl–1,3,4-oxadiazol–2-ylthio)methyl)–1-(4-nitrophenyl)-1H–1,2,3-triazole] | > 100 | 98.2 | IC50 (HCT-116 cells): 102 µM
10 | 111 to 112 | Clc1ccccc1-n1cc(CSc2nnc(-c3ccccc3)o2)nn1 [Compound 8, 4-((5-phenyl–1,3,4-oxadiazol–2-ylthio)methyl)–1-(2-chlorophenyl)-1H–1,2,3-triazole] | > 100 | 73.3 | IC50 (HCT-116 cells): 108 µM
11 | 119 to 120 | COC(=O)c1ccccc1-n1cc(CSc2nnc(-c3ccccc3)o2)nn1 [Compound 13, Methyl 2-(4-((5-phenyl–1,3,4-oxadiazol-2-ylthio)methyl)-1H–1,2,3-triazol–1-yl)benzoate] | 17.3 | 1.26 | fold activity compared to 5-fluorouracil, HCT-116 (HCT-116 cells): 1.9 fold; fold activity compared to tamoxifen, HCT-116 (HCT-116 cells): 1.5 fold; fold activity compared to pemetrexed, TS [1]: 1.5 fold; IC50 [1, 2]: 4.38 µM; IC50 (HEK 293 cells): > 50 µM; fold activity compared to tamoxifen, MCF-7 (MCF-7 cells; ratio of IC50, MCF-7): five times
